Each block holds one compound with its values, some of them ahead of it.
What was measured:
[1] = molecular target: T1, Bromodomain-containing protein 9 (Homo sapiens) (UniProt Q9H8M2); assay: Binding affinity of GST-tagged BRD9 domain (unknown origin) to histone H4Ac (1 to 21 residues) assessed as residual binding at 10 uM by alphascreen analysis relative to control
T1 sequence (whole entry): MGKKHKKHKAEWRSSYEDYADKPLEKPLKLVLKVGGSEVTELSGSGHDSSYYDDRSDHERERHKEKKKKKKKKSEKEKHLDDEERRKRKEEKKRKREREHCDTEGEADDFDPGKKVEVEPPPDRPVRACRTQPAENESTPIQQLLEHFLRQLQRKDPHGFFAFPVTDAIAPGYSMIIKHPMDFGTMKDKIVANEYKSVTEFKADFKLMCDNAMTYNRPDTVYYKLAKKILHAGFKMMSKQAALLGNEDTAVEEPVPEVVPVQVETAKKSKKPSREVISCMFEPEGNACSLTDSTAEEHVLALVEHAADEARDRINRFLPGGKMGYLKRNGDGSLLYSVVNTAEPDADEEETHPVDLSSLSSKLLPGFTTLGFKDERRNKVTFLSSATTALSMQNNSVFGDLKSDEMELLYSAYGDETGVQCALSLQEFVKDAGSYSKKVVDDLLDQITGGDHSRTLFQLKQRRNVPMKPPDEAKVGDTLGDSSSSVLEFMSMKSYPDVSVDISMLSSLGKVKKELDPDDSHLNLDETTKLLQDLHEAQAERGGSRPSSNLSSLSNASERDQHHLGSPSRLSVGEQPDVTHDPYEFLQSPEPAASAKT

[2] = molecular target: T2, Bromodomain-containing protein 9 (Homo sapiens, UniProt Q9H8M2); assay: Inhibition of BRD9 (unknown origin) by alpha screen analysis
T2 sequence (Q9H8M2 whole entry): T1 sequence (whole entry)

[3] = molecular target: Bromodomain-containing protein 2 (Homo sapiens) (UniProt P25440); assay: Binding affinity of recombinant His-tagged BRD2-BD1 (unknown origin) to histone H4Ac (1 to 21 residues) K5/8/12/Ac-Biotin-OH assessed as residual binding at 10 uM incubated for 30 mins by alphascreen analysis relative to control
Bromodomain-containing protein 2 (Homo sapiens), sequence (P25440 whole entry, looked up, the tested form may be a part): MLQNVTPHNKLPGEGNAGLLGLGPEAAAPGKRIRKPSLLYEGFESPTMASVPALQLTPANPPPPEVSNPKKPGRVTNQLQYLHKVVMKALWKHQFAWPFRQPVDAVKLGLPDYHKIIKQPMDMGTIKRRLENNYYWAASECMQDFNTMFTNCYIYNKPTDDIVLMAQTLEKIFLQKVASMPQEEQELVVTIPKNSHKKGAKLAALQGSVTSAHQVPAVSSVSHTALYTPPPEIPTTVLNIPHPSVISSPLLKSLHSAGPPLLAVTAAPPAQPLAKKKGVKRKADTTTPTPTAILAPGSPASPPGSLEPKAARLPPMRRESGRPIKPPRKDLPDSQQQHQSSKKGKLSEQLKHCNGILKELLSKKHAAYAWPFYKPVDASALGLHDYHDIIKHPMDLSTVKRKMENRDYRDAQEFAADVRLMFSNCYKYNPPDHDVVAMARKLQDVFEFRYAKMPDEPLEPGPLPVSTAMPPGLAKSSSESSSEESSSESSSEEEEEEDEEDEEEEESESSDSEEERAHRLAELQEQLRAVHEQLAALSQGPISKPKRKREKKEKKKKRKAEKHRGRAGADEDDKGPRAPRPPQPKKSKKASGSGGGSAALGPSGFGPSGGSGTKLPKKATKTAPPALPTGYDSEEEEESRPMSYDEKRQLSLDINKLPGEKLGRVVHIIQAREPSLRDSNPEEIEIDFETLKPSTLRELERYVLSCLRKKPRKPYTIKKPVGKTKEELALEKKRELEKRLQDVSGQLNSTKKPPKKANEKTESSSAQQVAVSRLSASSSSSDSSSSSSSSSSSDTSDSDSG

[4] = molecular target: Bromodomain-containing protein 2 (Homo sapiens) (UniProt P25440); assay: Binding affinity of recombinant His-tagged BRD2-BD2 (unknown origin) to histone H4Ac (1 to 21 residues) K5/8/12/Ac-Biotin-OH assessed as residual binding at 10 uM incubated for 30 mins by alphascreen analysis relative to control
[5] = molecular target: Bromodomain-containing protein 3 (Homo sapiens) (UniProt Q15059); assay: Binding affinity of recombinant His-tagged BRD3-BD1 (unknown origin) to histone H4Ac (1 to 21 residues) K5/8/12/Ac-Biotin-OH assessed as residual binding at 10 uM incubated for 30 mins by alphascreen analysis relative to control
Bromodomain-containing protein 3 (Homo sapiens), sequence (Q15059 2-726 limits assumed): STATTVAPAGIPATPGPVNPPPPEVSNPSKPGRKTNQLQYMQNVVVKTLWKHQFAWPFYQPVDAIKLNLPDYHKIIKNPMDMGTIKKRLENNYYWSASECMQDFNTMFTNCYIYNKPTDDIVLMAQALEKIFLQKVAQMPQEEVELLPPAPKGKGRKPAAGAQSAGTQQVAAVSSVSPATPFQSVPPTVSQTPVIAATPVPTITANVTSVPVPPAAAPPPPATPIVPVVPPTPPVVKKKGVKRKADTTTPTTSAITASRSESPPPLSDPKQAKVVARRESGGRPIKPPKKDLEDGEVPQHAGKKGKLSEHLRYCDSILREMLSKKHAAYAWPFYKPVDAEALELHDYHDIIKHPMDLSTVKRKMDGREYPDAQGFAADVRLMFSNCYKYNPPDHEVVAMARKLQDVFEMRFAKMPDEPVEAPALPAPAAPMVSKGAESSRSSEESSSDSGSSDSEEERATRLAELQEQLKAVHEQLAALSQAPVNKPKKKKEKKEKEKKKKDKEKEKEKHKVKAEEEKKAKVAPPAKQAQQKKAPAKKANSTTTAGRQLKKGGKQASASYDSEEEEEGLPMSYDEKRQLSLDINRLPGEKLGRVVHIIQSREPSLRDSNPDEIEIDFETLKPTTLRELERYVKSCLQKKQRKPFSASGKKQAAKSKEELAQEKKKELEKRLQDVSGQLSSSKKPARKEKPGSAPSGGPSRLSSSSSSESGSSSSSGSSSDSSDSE

[6] = molecular target: Bromodomain-containing protein 3 (Homo sapiens) (UniProt Q15059); assay: Binding affinity of recombinant His-tagged BRD3-BD2 (unknown origin) to histone H4Ac (1 to 21 residues) K5/8/12/Ac-Biotin-OH assessed as residual binding at 10 uM incubated for 30 mins by alphascreen analysis relative to control
[7] = molecular target: Bromodomain-containing protein 4 (Homo sapiens) (UniProt O60885); assay: Binding affinity of recombinant His-tagged BRD4-BD1 (unknown origin) to histone H4Ac (1 to 21 residues) K5/8/12/Ac-Biotin-OH assessed as residual binding at 10 uM incubated for 30 mins by alphascreen analysis relative to control
[8] = molecular target: Bromodomain-containing protein 4 (Homo sapiens) (UniProt O60885); assay: Binding affinity of recombinant His-tagged BRD4-BD2 (unknown origin) to histone H4Ac (1 to 21 residues) K5/8/12/Ac-Biotin-OH assessed as residual binding at 10 uM incubated for 30 mins by alphascreen analysis relative to control
[9] = molecular target: Bromodomain testis-specific protein (Homo sapiens) (UniProt Q58F21); assay: Binding affinity of recombinant His-tagged BRDT-BD1 (unknown origin) to histone H4Ac (1 to 21 residues) K5/8/12/Ac-Biotin-OH assessed as residual binding at 10 uM incubated for 30 mins by alphascreen analysis relative to control
[10] = molecular target: Bromodomain adjacent to zinc finger domain protein 2B (Homo sapiens) (UniProt Q9UIF8); assay: Binding affinity of recombinant His-tagged BAZ2B (unknown origin) to histone H3 (1 to 21 residues) K9/14Ac-Biotin-OH assessed as residual binding at 10 uM incubated for 30 mins by alphascreen analysis relative to control
Bromodomain adjacent to zinc finger domain protein 2B (Homo sapiens), sequence (Q9UIF8 whole entry, the tested form may be a part): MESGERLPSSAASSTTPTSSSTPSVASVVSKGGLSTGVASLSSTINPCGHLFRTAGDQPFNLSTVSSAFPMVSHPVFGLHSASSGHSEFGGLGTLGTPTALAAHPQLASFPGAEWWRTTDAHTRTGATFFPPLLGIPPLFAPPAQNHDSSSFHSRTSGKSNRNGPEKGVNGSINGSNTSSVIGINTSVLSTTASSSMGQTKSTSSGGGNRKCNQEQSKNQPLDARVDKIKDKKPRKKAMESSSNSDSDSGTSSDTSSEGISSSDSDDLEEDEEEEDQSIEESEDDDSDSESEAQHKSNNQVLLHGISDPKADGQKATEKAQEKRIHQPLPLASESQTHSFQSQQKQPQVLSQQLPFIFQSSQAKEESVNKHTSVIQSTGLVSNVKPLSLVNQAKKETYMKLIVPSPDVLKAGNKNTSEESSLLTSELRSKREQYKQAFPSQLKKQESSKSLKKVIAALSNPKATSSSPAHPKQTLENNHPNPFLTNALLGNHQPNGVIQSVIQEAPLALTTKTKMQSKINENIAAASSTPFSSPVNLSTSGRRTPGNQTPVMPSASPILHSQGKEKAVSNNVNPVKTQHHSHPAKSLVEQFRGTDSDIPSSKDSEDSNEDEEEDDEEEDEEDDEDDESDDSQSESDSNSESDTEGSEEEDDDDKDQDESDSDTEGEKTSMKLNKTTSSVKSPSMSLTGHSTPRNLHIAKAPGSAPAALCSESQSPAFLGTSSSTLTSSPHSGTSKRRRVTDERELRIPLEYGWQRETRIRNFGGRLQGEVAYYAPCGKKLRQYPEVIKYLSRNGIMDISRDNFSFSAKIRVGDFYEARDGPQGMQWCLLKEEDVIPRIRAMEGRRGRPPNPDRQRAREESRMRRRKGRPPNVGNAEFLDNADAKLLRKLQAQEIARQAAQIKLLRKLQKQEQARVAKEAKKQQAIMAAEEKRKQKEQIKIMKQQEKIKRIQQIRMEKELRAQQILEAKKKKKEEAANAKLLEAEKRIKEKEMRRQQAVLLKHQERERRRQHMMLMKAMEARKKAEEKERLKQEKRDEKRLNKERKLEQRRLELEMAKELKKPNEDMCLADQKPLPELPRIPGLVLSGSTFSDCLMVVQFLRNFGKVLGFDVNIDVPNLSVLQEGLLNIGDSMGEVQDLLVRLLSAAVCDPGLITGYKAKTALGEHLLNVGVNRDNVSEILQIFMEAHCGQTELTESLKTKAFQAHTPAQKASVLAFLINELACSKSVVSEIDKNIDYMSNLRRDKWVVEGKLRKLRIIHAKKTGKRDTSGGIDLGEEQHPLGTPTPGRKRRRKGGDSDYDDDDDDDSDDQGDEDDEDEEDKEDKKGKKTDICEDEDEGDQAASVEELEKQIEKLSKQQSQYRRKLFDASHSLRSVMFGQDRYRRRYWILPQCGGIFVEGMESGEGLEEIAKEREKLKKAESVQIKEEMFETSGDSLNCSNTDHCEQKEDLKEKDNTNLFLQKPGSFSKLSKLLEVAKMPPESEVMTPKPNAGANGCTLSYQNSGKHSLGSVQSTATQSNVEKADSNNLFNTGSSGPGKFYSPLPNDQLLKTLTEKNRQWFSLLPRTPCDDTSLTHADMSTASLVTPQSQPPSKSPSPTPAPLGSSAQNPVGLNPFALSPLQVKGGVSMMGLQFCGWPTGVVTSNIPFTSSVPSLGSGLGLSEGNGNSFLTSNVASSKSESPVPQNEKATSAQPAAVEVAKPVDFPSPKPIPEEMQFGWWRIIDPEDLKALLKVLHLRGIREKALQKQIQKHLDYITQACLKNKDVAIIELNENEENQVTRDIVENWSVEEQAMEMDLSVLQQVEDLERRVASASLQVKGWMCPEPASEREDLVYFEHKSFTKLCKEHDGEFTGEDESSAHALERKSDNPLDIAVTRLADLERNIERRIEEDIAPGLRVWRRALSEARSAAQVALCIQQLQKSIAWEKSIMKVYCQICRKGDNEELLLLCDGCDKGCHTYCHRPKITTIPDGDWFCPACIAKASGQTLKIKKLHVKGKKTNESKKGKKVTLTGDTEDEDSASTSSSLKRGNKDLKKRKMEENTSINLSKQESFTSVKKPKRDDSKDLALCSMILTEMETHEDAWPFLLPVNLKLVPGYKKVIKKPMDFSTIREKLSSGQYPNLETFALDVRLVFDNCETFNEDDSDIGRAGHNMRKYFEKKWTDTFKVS

[11] = molecular target: CREB-binding protein (Homo sapiens) (UniProt Q92793); assay: Binding affinity of recombinant His-tagged CREBBP (unknown origin) to histone H4Ac (1 to 21 residues) K5/8/12/Ac-Biotin-OH assessed as residual binding at 10 uM incubated for 30 mins by alphascreen analysis relative to control
Jurkat = assay: Cytotoxicity against human Jurkat cells assessed as cell viability measured after 24 hrs by MTT assay; format: functional, cell-based
MCF7 = assay: Cytotoxicity against human MCF7 cells assessed as cell viability measured after 24 hrs by MTT assay; format: functional, cell-based; conditions: MCF7, 24 h
A-375 = assay: Cytotoxicity against human A-375 cells assessed as cell viability measured after 24 hrs by MTT assay; format: functional, cell-based; conditions: A-375, 24 h
Caco-2 = assay: Cytotoxicity against human Caco-2 cells assessed as cell viability measured after 24 hrs by MTT assay; format: functional, cell-based; conditions: Caco-2, 24 h
HaCaT = assay: Cytotoxicity against human HaCaT cells assessed as cell viability measured after 24 hrs by MTT assay; format: functional, cell-based
[12] = Cytotoxicity against human erythrocytes assessed as cell viability measured after 24 hrs by MTT assay; format: toxicity, cell-based, Erythrocyte

Activity [1]: 50.8%
IC50 [2]: 7.62 µM
Activity [3]: > 100%
Activity [4]: > 100%
Activity [5]: 97.8%
Activity [6]: > 100%
Activity [7]: 99.2%
Activity [8]: > 100%
Activity [9]: 97.9%
Activity [10]: > 100%
Activity [11]: > 100%
SMILES: CCn1nc(C)n(-c2ccc(OC)c(OC)c2)c1=O
IC50 (Jurkat): 315 µM
IC50 (MCF7): 360 µM
IC50 (A-375): 400 µM
IC50 (Caco-2): 300 µM
IC50 (HaCaT): > 500 µM
IC50 at 24 h [12]: > 500 µM

Activity [1]: 97.8%
SMILES: Cc1n[nH]c(=O)n1-c1ccc(F)c(C(F)(F)F)c1

Activity [1]: 97.1%
SMILES: CCc1ccc(-n2c(CC)n[nH]c2=O)cc1

Activity [1]: 39.4%
IC50 [2]: 2.49 µM
Activity [3]: 99%
Activity [4]: > 100%
Activity [5]: > 100%
Activity [6]: 97.4%
Activity [7]: 97.7%
Activity [8]: > 100%
Activity [9]: 98.3%
Activity [10]: > 100%
Activity [11]: > 100%
SMILES: CCc1nn(CC)c(=O)n1-c1cccc(C(F)(F)F)c1
IC50 (Jurkat): 270 µM
IC50 (MCF7): 490 µM
IC50 (A-375): > 500 µM
IC50 (Caco-2): > 500 µM
IC50 (HaCaT): > 500 µM
IC50 at 24 h [12]: > 500 µM

Activity [1]: > 100%
SMILES: Cc1cccc(-n2c(C)n[nH]c2=O)c1

Activity [1]: 85.1%
SMILES: CCc1nn(C)c(=O)n1-c1ccc(C)c(C)c1

Activity [1]: 91.2%
SMILES: CCc1nn(CC)c(=O)n1-c1ccc2c(c1)OCO2

Activity [1]: 96.9%
SMILES: CCc1n[nH]c(=O)n1-c1ccc(OC)c(OC)c1

Activity [1]: 76.5%
SMILES: CCc1nn(C)c(=O)n1-c1cccc(C(F)(F)F)c1

Activity [1]: 84.6%
SMILES: CCc1n[nH]c(=O)n1-c1ccc2c(c1)OCO2

Activity [1]: 64.3%
SMILES: CCc1nn(C)c(=O)n1C1CCCCC1

Activity [1]: 86.6%
SMILES: CCc1nn(CC)c(=O)n1-c1ccc(F)c(Cl)c1

Activity [1]: 86.7%
SMILES: Cc1cccc(-n2c(C)nn(C)c2=O)c1

Activity [1]: > 100%
SMILES: CCc1nn(CC)c(=O)n1-c1ccc(OC)c(OC)c1

Activity [1]: 85.3%
SMILES: Cc1nn(C)c(=O)n1-c1ccc(F)c(C(F)(F)F)c1

Activity [1]: 73.6%
SMILES: COc1ccc(-n2c(C)nnc2O)cc1OC

Activity [1]: > 100%
SMILES: Cc1cc(-n2c(C)n[nH]c2=O)ccc1F

Activity [1]: 77.9%
SMILES: Cc1nn(C)c(=O)n1C1CCCCC1

Activity [1]: 24.3%
IC50 [2]: 1.86 µM
Activity [3]: > 100%
Activity [4]: > 100%
Activity [5]: > 100%
Activity [6]: 98.3%
Activity [7]: 99.2%
Activity [8]: > 100%
Activity [9]: 98.2%
Activity [10]: > 100%
Activity [11]: > 100%
SMILES: CCc1nn(C)c(=O)n1-c1ccc(F)c(Cl)c1
IC50 (Jurkat): 225 µM
IC50 (MCF7): > 500 µM
IC50 (A-375): 500 µM
IC50 (Caco-2): > 500 µM
IC50 (HaCaT): > 500 µM
IC50 at 24 h [12]: > 500 µM

Activity [1]: 91.8%
SMILES: CCc1n[nH]c(=O)n1-c1ccc(Cl)c(F)c1

Activity [1]: 28.1%
IC50 [2]: 0.35 µM
Activity [3]: 96.5%
Activity [4]: > 100%
Activity [5]: > 100%
Activity [6]: > 100%
Activity [7]: > 100%
Activity [8]: 94.7%
Activity [9]: > 100%
Activity [10]: > 100%
Activity [11]: 96.3%
SMILES: COc1ccc(-n2c(C)nn(C)c2=O)cc1OC
IC50 (Jurkat): 110 µM
IC50 (MCF7): > 500 µM
IC50 (A-375): 450 µM
IC50 (Caco-2): 300 µM
IC50 (HaCaT): > 500 µM
IC50 at 24 h [12]: > 500 µM

Activity [1]: > 100%
SMILES: Cc1nnc(O)n1-c1ccc(C(C)(C)C)cc1

Activity [1]: 97.5%
SMILES: CCc1n[nH]c(=O)n1-c1ccc(C)c(Cl)c1

Activity [1]: 38.1%
IC50 [2]: 4.13 µM
Activity [3]: > 100%
Activity [4]: 96.7%
Activity [5]: 97.3%
Activity [6]: 97.7%
Activity [7]: > 100%
Activity [8]: 89.4%
Activity [9]: 95.6%
Activity [10]: > 100%
Activity [11]: > 100%
SMILES: CCc1nn(C)c(=O)n1-c1ccc(OC)c(OC)c1
IC50 (Jurkat): 420 µM
IC50 (MCF7): > 500 µM
IC50 (A-375): 480 µM
IC50 (Caco-2): > 500 µM
IC50 (HaCaT): > 500 µM
IC50 at 24 h [12]: > 500 µM

Activity [1]: 35.6%
IC50 [2]: 5.44 µM
Activity [3]: > 100%
Activity [4]: > 100%
Activity [5]: 74.8%
Activity [6]: 99.9%
Activity [7]: 96.2%
Activity [8]: 99.2%
Activity [9]: > 100%
Activity [10]: 97.5%
Activity [11]: > 100%
SMILES: CCn1nc(C)n(-c2ccc3c(c2)OCO3)c1=O
IC50 (Jurkat): > 500 µM
IC50 (MCF7): > 500 µM
IC50 (A-375): > 500 µM
IC50 (Caco-2): > 500 µM
IC50 (HaCaT): > 500 µM
IC50 at 24 h [12]: > 500 µM

Activity [1]: 97.2%
SMILES: CCc1n[nH]c(=O)n1-c1ccc(C)c(C)c1

Activity [1]: 58.8%
IC50 [2]: 11.1 µM
Activity [3]: > 100%
Activity [4]: 94.4%
Activity [5]: 97.3%
Activity [6]: 94.9%
Activity [7]: > 100%
Activity [8]: 99.3%
Activity [9]: 92.5%
Activity [10]: 92.8%
Activity [11]: > 100%
SMILES: Cc1nn(C)c(=O)n1-c1ccc2c(c1)OCO2
IC50 (Jurkat): 290 µM
IC50 (MCF7): 400 µM
IC50 (A-375): 400 µM
IC50 (Caco-2): 370 µM
IC50 (HaCaT): > 500 µM
IC50 at 24 h [12]: > 500 µM

Activity [1]: 41.2%
IC50 [2]: 4.01 µM
Activity [3]: 98.2%
Activity [4]: > 100%
Activity [5]: > 100%
Activity [6]: 93.3%
Activity [7]: 99%
Activity [8]: > 100%
Activity [9]: 98.3%
Activity [10]: > 100%
Activity [11]: > 100%
SMILES: CCn1nc(C)n(-c2ccc(F)c(Cl)c2)c1=O
IC50 (Jurkat): > 500 µM
IC50 (MCF7): > 500 µM
IC50 (A-375): 450 µM
IC50 (Caco-2): > 500 µM
IC50 (HaCaT): > 500 µM
IC50 at 24 h [12]: > 500 µM

Activity [1]: 95.7%
SMILES: Cc1nn(C)c(=O)n1-c1ccc(C(C)(C)C)cc1

Activity [1]: > 100%
SMILES: Cc1ccc(-n2c(C)n[nH]c2=O)cc1

Activity [1]: 96.1%
SMILES: CCc1n[nH]c(=O)n1-c1cccc(C(F)(F)F)c1

Activity [1]: 94.9%
SMILES: CCc1n[nH]c(=O)n1-c1ccc(F)c(C)c1

— ChEMBL document CHEMBL5331094, “Identification of 2,4,5-trisubstituted-2,4-dihydro-3H-1,2,4-triazol-3-one-based small molecules as selective BRD9 binders” (Eur J Med Chem, 2023)
